pEC50: −log10 of the molar value.

Results on 24 compounds are retold here after patent US7939558B2, “Compounds having activity in increasing ion transport by mutant-CFTR and uses thereof” (The Regents of the University of California, priority 2004, dated 2011).

Sequence of ΔF508-CFTR (P13569 with tags, fused parts or gaps DEL508-508): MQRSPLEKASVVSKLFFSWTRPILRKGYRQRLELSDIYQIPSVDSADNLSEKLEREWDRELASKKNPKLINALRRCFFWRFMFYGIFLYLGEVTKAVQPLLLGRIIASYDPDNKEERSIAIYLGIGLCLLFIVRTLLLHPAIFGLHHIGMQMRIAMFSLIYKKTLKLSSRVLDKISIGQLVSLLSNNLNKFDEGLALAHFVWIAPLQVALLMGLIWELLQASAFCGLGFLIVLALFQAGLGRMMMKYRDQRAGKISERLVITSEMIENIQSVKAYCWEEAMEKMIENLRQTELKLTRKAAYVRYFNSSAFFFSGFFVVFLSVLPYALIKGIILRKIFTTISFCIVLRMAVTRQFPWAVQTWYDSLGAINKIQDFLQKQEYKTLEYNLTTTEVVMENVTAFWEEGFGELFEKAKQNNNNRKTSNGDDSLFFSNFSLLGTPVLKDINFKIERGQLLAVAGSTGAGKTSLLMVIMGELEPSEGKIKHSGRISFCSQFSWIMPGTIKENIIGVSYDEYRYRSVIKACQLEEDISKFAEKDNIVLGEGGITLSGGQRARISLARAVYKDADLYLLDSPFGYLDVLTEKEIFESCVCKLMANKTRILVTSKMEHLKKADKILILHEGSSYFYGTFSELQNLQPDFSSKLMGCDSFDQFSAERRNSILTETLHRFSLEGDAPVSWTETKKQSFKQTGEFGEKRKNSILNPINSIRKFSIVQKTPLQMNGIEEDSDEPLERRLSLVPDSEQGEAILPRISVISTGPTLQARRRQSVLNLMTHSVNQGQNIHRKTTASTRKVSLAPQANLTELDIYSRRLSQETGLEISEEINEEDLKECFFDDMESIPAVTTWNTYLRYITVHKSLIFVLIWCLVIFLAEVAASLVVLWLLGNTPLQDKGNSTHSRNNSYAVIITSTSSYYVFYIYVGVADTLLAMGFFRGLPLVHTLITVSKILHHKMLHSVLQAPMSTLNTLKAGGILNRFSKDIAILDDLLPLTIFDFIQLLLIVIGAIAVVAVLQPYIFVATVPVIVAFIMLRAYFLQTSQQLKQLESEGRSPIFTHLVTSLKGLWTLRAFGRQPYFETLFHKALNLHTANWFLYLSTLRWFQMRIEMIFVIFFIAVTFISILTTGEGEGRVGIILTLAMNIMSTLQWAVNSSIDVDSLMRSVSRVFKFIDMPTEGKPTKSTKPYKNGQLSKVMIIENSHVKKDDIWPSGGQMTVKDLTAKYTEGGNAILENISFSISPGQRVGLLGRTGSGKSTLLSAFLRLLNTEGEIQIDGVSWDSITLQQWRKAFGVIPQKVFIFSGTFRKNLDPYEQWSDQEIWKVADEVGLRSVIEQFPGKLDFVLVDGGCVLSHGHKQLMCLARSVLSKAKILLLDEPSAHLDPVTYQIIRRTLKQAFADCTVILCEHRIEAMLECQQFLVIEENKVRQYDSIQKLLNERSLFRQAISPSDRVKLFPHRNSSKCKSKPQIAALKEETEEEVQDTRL

This test deals with ΔF508-CFTR (Homo sapiens, UniProt P13569, DEL508-508). The test is described as follows: Fluorescence (YFP-H148Q/I152L) I− influx assay of ΔF508-CFTR potentiator activity in FRT cells. The test is classed as cell-based. Details: expressed in transfected cells. Particulars: sulfonamide containing compounds, 27° C. 24 h, forskolin 20 μM, read-out: Ka. The method, then:
Clonal populations of Fischer rat thyroid (FRT) epithelial cells stably co-expressing human ΔF508-CFTR and the high-sensitivity halide-sensing green fluorescent analog YFP-H148Q/I152L (Galietta et al., A.S. (2001) FEBS Lett. 499, 220-224) were generated by liposome transfection and limiting dilution with Zeocin/G418 selection. More than 100 clones were evaluated for high fluorescence and ΔF508-CFTR plasma membrane targeting after growth at 27° C. for 24 hours. For screening, cells were cultured on plastic in Coon's modified F12 medium supplemented with 10% fetal bovine serum, 2 mM L-glutamine, 100 U/ml penicillin, and 100 μg/ml streptomycin, and plated on black 96-well microplates (Corning-Costar 3904) at 30,000 cells/well. For short-circuit measurements cells were cultured on Snapwell permeable supports (Corning-Costar) at 500,000 cells/insert. Human nasal epithelium cells from CF patients were cultured on Snapwell inserts and allowed to differentiate in a hormone-supplemented medium (Galietta et al., Am. J. Physiol., […]). Some measurements were done using stably transfected FRT cells expressing YFP-H148Q and wildtype- or G551D-CFTR (Galietta et al., (2001) J. Biol. Chem. 276, 19723-19728). Patch clamp experiments were done on ΔF508-CFTR-expressing FRT cells plated in 35-mm Petri dishes.
Screening was carried out using a Beckman integrated system containing a 3-meter robotic arm, CO2 incubator containing microplate carousel, plate-washer, liquid handling workstation, bar code reader, delidding station, plate sealer, and two FluoStar fluorescence plate readers (Galaxy, BMG Lab Technologies), each equipped with dual syringe pumps and HQ500/20X ([…]) excitation and HQ535/30M (535±15 nm) emission filters (Chroma). Software was written in VBA (Visual Basic for Applications) to compute baseline-subtracted fluorescence slopes (giving halide influx rates).
For assay of ΔF508-CFTR potentiator activity the incubator (27° C., 90% humidity, 5% CO2/95% air) was loaded with forty-to-sixty 96-well plates containing FRT cells. After an 18-24 hour incubation plates were washed 3 times with PBS (300 μl/wash) leaving 50 μl PBS. 10 μl of PBS containing 120 μM forskolin was added, and after 5 min test compounds (0.6 μl of 0.25 mM DMSO solution) were added to each well to give 2.5 μM final compound concentrations. After 15 min, 96-well plates were transferred to a plate reader for fluorescence assay. Each well was assayed individually for I^− influx by recording fluorescence continuously (200 ms per point) for 2 seconds (baseline) and then for 12 seconds after rapid (<1 s) addition of 160 μL of isosmolar PBS in which 137 mM Cl^− was replaced by I^−. I^− influx rates were computed from initial fluorescence versus time-curve slopes (determined by 3rd order polynomial regression) after normalization for total fluorescence (background subtracted initial fluorescence). All compound plates contained negative control (DMSO vehicle alone) and positive controls (genistein, 5 μM and 50 μM). Assay analysis indicated a Z′-factor of >0.7 (Zhang et al., J. Biomol. Screen 4:67-73 (1999)).
The high-throughput screen was designed to identify compounds that activated ΔF508-CFTR when expressed at the cell plasma membrane. FRT epithelial cells co-expressing ΔF508-CFTR and a high sensitivity yellow fluorescent protein-based halide indicator were incubated at 27° C. for 24 h to permit ΔF508-CFTR plasma membrane targeting (FIG. 1, panel A). After washing, forskolin (20 μM) and test compounds (2.5 μM) were added to individual wells of 96-well plates. The I^− influx assay was carried out ˜15 min later by measurement of the time course of decreasing YFP fluorescence after creation of an inwardly-directed I^− gradient. A high concentration of forskolin was used to identify ΔF508-CFTR potentiators that may interact directly with ΔF508-CFTR rather than alter cAMP concentration. […]
As for `O=C(NC1CCCCC1)c1c[nH]c2ccc(S(=O)(=O)N3CCc4ccccc43)cc2c1=O` [Compound S-32, 6-(2,3-Dihydro-indole-1-sulfonyl)-4-oxo-1,4-dihydro-quinoline-3-carboxylic acid cyclohexylamide], the pEC50 was 6.24.
For the compound `CCN(c1ccccc1)S(=O)(=O)c1ccc2[nH]cc(C(=O)NCc3ccc(C)cc3)c(=O)c2c1` [Compound S-33], the pEC50 is 6.23.
The result for `CCOC(=O)C(NC(=O)c1c[nH]c2ccc(S(=O)(=O)N(C)C3CCCCC3)cc2c1=O)C(=O)OCC` [Compound S-34] reads 6.23.
The value for `CCN(c1cccc(C)c1)S(=O)(=O)c1ccc2[nH]cc(C(=O)NCc3ccccc3OC)c(=O)c2c1` [Compound S-35] was 6.22; that for `CCOCCCNC(=O)c1c[nH]c2ccc(S(=O)(=O)N(C)c3ccccc3CC)cc2c1=O` [Compound S-36] was 6.21.
`C=CCN(c1ccccc1)S(=O)(=O)c1ccc2[nH]cc(C(=O)NCc3ccco3)c(=O)c2c1` [Compound S-37, 6-(Allyl-phenyl-sulfamoyl)-4-oxo-1,4-dihydro-quinoline-3-carboxylic acid (furan-2-ylmethyl)-amide]: the pEC50 was 6.19.
Consider `CN(c1ccc(Cl)cc1F)S(=O)(=O)c1ccc2[nH]cc(C(=O)NCC3CCCO3)c(=O)c2c1` (stereo not drawn) [Compound S-38], for which the pEC50 is 6.18.
For `CCN(CC)S(=O)(=O)c1ccc2[nH]cc(C(=O)NCc3ccc(OC)cc3)c(=O)c2c1` [Compound S-39], the pEC50 was 6.18.
The result for `CCN(c1cccc(C)c1)S(=O)(=O)c1ccc2[nH]cc(C(=O)NCCC(C)C)c(=O)c2c1` [Compound S-40] reads 6.14.
Regarding `CCCCNC(=O)c1c[nH]c2ccc(S(=O)(=O)N(CC)CC)cc2c1=O` [Compound S-41], the pEC50 is 6.13.
`CCc1ccccc1N(C)S(=O)(=O)c1ccc2[nH]cc(C(=O)NCCOC)c(=O)c2c1` [Compound S-43]: the pEC50 was 6.11.
The result for `CCC(C)NC(=O)c1c[nH]c2ccc(S(=O)(=O)N(C)c3ccc(Br)cc3)cc2c1=O` (stereo not drawn) [Compound S-45] reads 6.09; that for `CCCNC(=O)c1c[nH]c2ccc(S(=O)(=O)N(C)c3ccc(C)c(C)c3)cc2c1=O` [Compound S-46], 6.08.
The result for `Cc1ccccc1N(C)S(=O)(=O)c1ccc2[nH]cc(C(=O)NCCC(C)C)c(=O)c2c1` [Compound S-47, 6-(Methyl-o-tolyl-sulfamoyl)-4-oxo-1,4-dihydro-quinoline-3-carboxylic acid (3-methyl-butyl)-amide] reads 6.06; that for `CCN(c1ccc(F)cc1)S(=O)(=O)c1ccc2[nH]cc(C(=O)NCCCOC)c(=O)c2c1` [Compound S-50], 5.99.
The value for `CCN(c1cccc(C)c1)S(=O)(=O)c1ccc2[nH]cc(C(=O)NCC3CCCO3)c(=O)c2c1` (stereo not drawn) [Compound S-51] was 5.95.
As to `C=CCNC(=O)c1c[nH]c2ccc(S(=O)(=O)N(C)c3ccccc3CC)cc2c1=O` [Compound S-52], the pEC50 is 5.94.
Regarding `CCN(c1ccccc1)S(=O)(=O)c1ccc2[nH]cc(C(=O)NC(C)C)c(=O)c2c1` [Compound S-53], the pEC50 is 5.94.
With `CCCCCCCCNC(=O)c1c[nH]c2ccc(S(=O)(=O)N(C)c3ccccc3OCC)cc2c1=O` [Compound S-54], the pEC50 is 5.94.
The value for `CCCNC(=O)c1c[nH]c2ccc(S(=O)(=O)N(C)c3ccc(F)cc3)cc2c1=O` [Compound S-55] was 5.90.
Consider `CCCCCCNC(=O)c1c[nH]c2ccc(S(=O)(=O)N(CC)c3ccccc3)cc2c1=O` [Compound S-57], for which the pEC50 is 5.89.
`CCOC(CNC(=O)c1c[nH]c2ccc(S(=O)(=O)N(C)c3ccccc3CC)cc2c1=O)OCC` [Compound S-58]: the pEC50 is 5.89.
The value for `CCC(C)NC(=O)c1c[nH]c2ccc(S(=O)(=O)N(C)c3ccccc3C)cc2c1=O` (stereo not drawn) [Compound S-59] was 5.89; that for `CCOCCCNC(=O)c1c[nH]c2ccc(S(=O)(=O)N(C)c3ccc(Cl)cc3F)cc2c1=O` [Compound S-60] was 5.86.
